# In ChEMBL document CHEMBL5131386, “Synthesis and biological evaluation of novel schisanhenol derivatives as potential hepatoprotective agents” (Eur J Med Chem, 2022):
# Active and inactive are the calls of the source. The calls are words filed in the database; no cut-off is given here.
# Legend:
# L02 [1] = test: Hepatoprotective activity against concanavalin A induced liver injury in human HL7702 cells assessed as cell survival rate at 5 uM preincubated for 12 hrs followed by concanavalin A stimulation for 12 hrs by MTT assay (reference value: 51.37%); type: functional; conditions: time 24 hrs, read-out: Survival
# L02 [2] = test: Hepatoprotective activity against concanavalin A induced human HL7702 cell apoptosis assessed as decrease in Bax expression level at 5 uM preincubated for 12 hrs followed by concanavalin A stimulation for 12 hrs by Western blot analysis; type: functional, cell-based; conditions: time 24.0 hrs
# L02 [3] = test: Hepatoprotective activity against concanavalin A induced human HL7702 cell apoptosis assessed as nuclear morphological changes at 5 uM preincubated for 12 hrs followed by concanavalin A stimulation for 12 hrs by Hoechst 33342 staining based fluorescence microscopy; type: functional; conditions: time 24.0 hrs
# L02 [4] = test: Hepatoprotective activity against concanavalin A induced livery injury in human HL7702 cells assessed as decrease in JAK2 phosphorylation level at 5 uM preincubated for 12 hrs followed by concanavalin A stimulation for 12 hrs by Western blot analysis; type: functional, cell-based; conditions: time 24.0 hrs
# L02 [5] = test: Cytotoxicity against human HL7702 cells ssessed as cell survival rate at 5 uM for 12 hrs by MTT assay; type: toxicity, cell-based; conditions: l02, 12 h
# L02 [6] = test: Hepatoprotective activity against concanavalin A induced livery injury in human HL7702 cells assessed as decrease in STAT3 phosphorylation level at 5 uM preincubated for 12 hrs followed by concanavalin A stimulation for 12 hrs by Western blot analysis; type: functional, cell-based; conditions: time 24.0 hrs
# L02 [7] = test: Hepatoprotective activity against concanavalin A induced livery injury in human HL7702 cells assessed as increase in HO-1 expression level at 5 uM preincubated for 12 hrs followed by concanavalin A stimulation for 12 hrs by Western blot analysis; type: functional, cell-based; conditions: time 24.0 hrs
# L02 [8] = test: Hepatoprotective activity against concanavalin A induced human HL7702 cell apoptosis assessed as increase in Bcl-2 expression level at 5 uM preincubated for 12 hrs followed by concanavalin A stimulation for 12 hrs by Western blot analysis; type: functional, cell-based; conditions: time 24.0 hrs
# L02 [9] = test: Hepatoprotective activity against concanavalin A induced human HL7702 cell apoptosis assessed as decrease in cleaved caspase-3 level at 5 uM preincubated for 12 hrs followed by concanavalin A stimulation for 12 hrs by Western blot analysis; type: functional, cell-based; conditions: time 24.0 hrs
# L02 [10] = test: Hepatoprotective activity against concanavalin A induced livery injury in human HL7702 assessed as decrease in IL-6 expression level at 5 uM preincubated for 12 hrs followed by concanavalin A stimulation for 12 hrs by Western blot analysis; type: functional, cell-based; conditions: time 24.0 hrs
# Mus musculus [11] = test: (§1) Hepatoprotective activity against concanavalin A induced C57BL/6 mouse livery injury model assessed as decrease in serum ALT level at 150 mg/kg, ip once daily for 2 weeks followed by concanavalin A stimulation and measured after 12 hrs; type: functional, organism-based
# Mus musculus [12] = test: as §1, with “cleaved caspase-3” for “serum ALT”, “level in liver” for “level”, “hrs by DAB staining based immunohistological anlaysis” for “hrs”; type: functional, organism-based
# Mus musculus [13] = test: Hepatoprotective activity against concanavalin A induced C57BL/6 mouse livery injury model assessed as decrease in severity of liver damage at 150 mg/kg, ip once daily for 2 weeks followed by concanavalin A stimulation and measured after 12 hrs by H&E staining based […]; type: functional, organism-based
# Mus musculus [14] = test: Hepatoprotective activity against concanavalin A induced C57BL/6 mouse livery injury model assessed as decrease in cleaved caspase 3 level at 150 mg/kg, ip once daily for 2 weeks followed by concanavalin A stimulation and measured after 12 hrs by Western blot analysis; type: functional, organism-based
# Mus musculus [15] = test: Hepatoprotective activity against concanavalin A induced C57BL/6 mouse livery injury model assessed as decrease in JAK2 phosphorylation level at 150 mg/kg, ip once daily for 2 weeks followed by concanavalin A stimulation and measured after 12 hrs by Western blot analysis; type: functional, organism-based
# Mus musculus [16] = test: as §1, with “phosphorylated STAT3” for “serum ALT”, “level in liver” for “level”, “hrs by DAB staining based immunohistological anlaysis” for “hrs”; type: functional, organism-based
# Mus musculus [17] = test: Hepatoprotective activity against concanavalin A induced C57BL/6 mouse livery injury model assessed as decrease in Bax level at 150 mg/kg, ip once daily for 2 weeks followed by concanavalin A stimulation and measured after 12 hrs by Western blot analysis; type: functional, organism-based
# Mus musculus [18] = test: Hepatoprotective activity against concanavalin A induced C57BL/6 mouse livery injury model assessed as decrease in serum AST level at 150 mg/kg, ip once daily for 2 weeks followed by concanavalin A stimulation and measured after 12 hrs; type: functional, organism-based
# Mus musculus [19] = test: Hepatoprotective activity against concanavalin A induced C57BL/6 mouse livery injury model assessed as decrease in STAT3 phosphorylation level at 150 mg/kg, ip once daily for 2 weeks followed by concanavalin A stimulation and measured after 12 hrs by Western blot analysis; type: functional, organism-based
# Mus musculus [20] = test: Hepatoprotective activity against concanavalin A induced C57BL/6 mouse livery injury model assessed as decrease in serum IL-6 level at 150 mg/kg, ip once daily for 2 weeks followed by concanavalin A stimulation and measured after 12 hrs by ELISA; type: functional, organism-based
# Mus musculus [21] = test: Hepatoprotective activity against concanavalin A induced C57BL/6 mouse livery injury model assessed as increase in Bcl-2 level at 150 mg/kg, ip once daily for 2 weeks followed by concanavalin A stimulation and measured after 12 hrs by Western blot analysis; type: functional, organism-based
# L02 [22] = test: Hepatoprotective activity against concanavalin A induced livery injury in human HL7702 assessed as decrease in IL-6 expression level at 5 uM preincubated for 24 hrs followed by concanavalin A stimulation for 12 hrs by ELISA assay; type: functional, cell-based; conditions: time 36.0 hrs
# Mus musculus [23] = test: Hepatoprotective activity against concanavalin A induced C57BL/6 mouse livery injury model assessed as decrease in STAT3 phosphorylation level at 5 mg/kg, ip once daily for 2 weeks followed by concanavalin A stimulation and measured after 12 hrs by Western blot analysis; type: functional, organism-based
# Mus musculus [24] = test: Hepatoprotective activity against concanavalin A induced C57BL/6 mouse livery injury model assessed as decrease in severity of liver damage at 5 mg/kg, ip once daily for 2 weeks followed by concanavalin A stimulation and measured after 12 hrs by H&E staining based […]; type: functional, organism-based
# Mus musculus [25] = test: Hepatoprotective activity against concanavalin A induced C57BL/6 mouse livery injury model assessed as decrease in JAK2 phosphorylation level at 5 mg/kg, ip once daily for 2 weeks followed by concanavalin A stimulation and measured after 12 hrs by Western blot analysis; type: functional, organism-based
# Mus musculus [26] = test: Hepatoprotective activity against concanavalin A induced C57BL/6 mouse livery injury model assessed as decrease in phosphorylated STAT3 level in liver at 5 mg/kg, ip once daily for 2 weeks followed by concanavalin A stimulation and measured after 12 hrs by DAB staining based immunohistological anlaysis; type: functional, organism-based
# Mus musculus [27] = test: Hepatoprotective activity against concanavalin A induced C57BL/6 mouse livery injury model assessed as decrease in cleaved caspase 3 level at 5 mg/kg, ip once daily for 2 weeks followed by concanavalin A stimulation and measured after 12 hrs by Western blot analysis; type: functional, organism-based
# Mus musculus [28] = test: Hepatoprotective activity against concanavalin A induced C57BL/6 mouse livery injury model assessed as increase in Bcl-2 level at 5 mg/kg, ip once daily for 2 weeks followed by concanavalin A stimulation and measured after 12 hrs by Western blot analysis; type: functional, organism-based
# Mus musculus [29] = test: Hepatoprotective activity against concanavalin A induced C57BL/6 mouse livery injury model assessed as decrease in serum IL-6 level at 5 mg/kg, ip once daily for 2 weeks followed by concanavalin A stimulation and measured after 12 hrs by ELISA; type: functional, organism-based
# Mus musculus [30] = test: Hepatoprotective activity against concanavalin A induced C57BL/6 mouse livery injury model assessed as decrease in Bax level at 5 mg/kg, ip once daily for 2 weeks followed by concanavalin A stimulation and measured after 12 hrs by Western blot analysis; type: functional, organism-based
# Mus musculus [31] = test: Hepatoprotective activity against concanavalin A induced C57BL/6 mouse livery injury model assessed as decrease in serum ALT level at 5 mg/kg, ip once daily for 2 weeks followed by concanavalin A stimulation and measured after 12 hrs; type: functional, organism-based
# Mus musculus [32] = test: Hepatoprotective activity against concanavalin A induced C57BL/6 mouse livery injury model assessed as decrease in serum AST level at 5 mg/kg, ip once daily for 2 weeks followed by concanavalin A stimulation and measured after 12 hrs; type: functional, organism-based
# Mus musculus [33] = test: Hepatoprotective activity against concanavalin A induced C57BL/6 mouse livery injury model assessed as decrease in cleaved caspase-3 level in liver at 5 mg/kg, ip once daily for 2 weeks followed by concanavalin A stimulation and measured after 12 hrs by DAB staining based immunohistological anlaysis; type: functional, organism-based
SMILES,viability at 5 µM (L02 [1]),Activity (L02 [2]),Activity (L02 [3]),Activity (L02 [5]),Activity (L02 [8]),Activity (L02 [9]),further results
COC1=C(OC)C(OC)CC2=C1c1c(c([N+](=O)[O-])c(OC)c(OC)c1OCCCO)CC(C)C(C)C2 (stereo not drawn),73.1%,,,,,,
COc1c(Cl)c2c(c(OC)c1OC)-c1c(c(Cl)c(OC)c(OC)c1OC(=O)/C=C/c1ccccc1)CC(C)C(C)C2 (stereo not drawn),89.7%,Active,Active,Non-Toxic,Active,Active,Activity (L02 [4]): Active; Activity (L02 [6]): Active; Activity (L02 [7]): Active
COc1c(Cl)c2c(c(OC)c1OC)-c1c(c(Cl)c(OC)c(OC)c1OCCCOC(=O)C(CCSC)NC(=O)OC(C)(C)C)CC(C)C(C)C2 (stereo not drawn),90.8%,Active,Active,Non-Toxic,Active,Active,
COC(=O)c1ccc(-c2ccc(C(=O)OC)cc2)cc1 [BIPHENYL DIMETHYL DICARBOXYLATE],63.9%,,,,,,Activity (L02 [10]): Active; Activity (Mus musculus [11]): Active; Activity (Mus musculus [12]): Active; Activity (Mus musculus [13]): Active; Activity (Mus musculus [14]): Active; Activity (Mus musculus [15]): Active; Activity (Mus musculus [16]): Active; Activity (Mus musculus [17]): Active; Activity (Mus musculus [18]): Active; Activity (Mus musculus [19]): Active; Activity (Mus musculus [20]): Active; Activity (Mus musculus [21]): Active; Activity (L02 [22]): Active
COc1cc2c(c(OC)c1OC)-c1c(c(Cl)c(OC)c(OC)c1OC(=O)/C=C/c1ccccc1)CC(C)C(C)C2 (stereo not drawn),110%,Active,Active,Non-Toxic,Active,Active,Activity (L02 [10]): Active; Activity (Mus musculus [23]): Active; Activity (Mus musculus [24]): Active; Activity (L02 [4]): Active; Activity (Mus musculus [25]): Active; Activity (Mus musculus [26]): Active; Activity (Mus musculus [27]): Active; Activity (L02 [6]): Active; Activity (Mus musculus [28]): Active; Activity (Mus musculus [29]): Active; Activity (Mus musculus [30]): Active; Activity (L02 [7]): Active; Activity (Mus musculus [31]): Active; Activity (Mus musculus [32]): Active; Activity (Mus musculus [33]): Active; Activity (L02 [22]): Active
COc1cc2c(c(OC)c1OC)-c1c(c(Cl)c(OC)c(OC)c1OC(=O)c1cccnc1)CC(C)C(C)C2 (stereo not drawn),93.7%,Active,Active,Non-Toxic,Active,Active,Activity (L02 [4]): Active; Activity (L02 [6]): Active; Activity (L02 [7]): Active
COc1c(Cl)c2c(c(OC)c1OC)-c1c(c(Cl)c(OC)c(OC)c1OC(=O)c1ccc(C(F)(F)F)cc1)CC(C)C(C)C2 (stereo not drawn),65.1%,,,,,,
COc1c(Cl)c2c(c(OC)c1OC)-c1c(c(Cl)c(OC)c(OC)c1OS(=O)(=O)Cc1ccccc1)CC(C)C(C)C2 (stereo not drawn),71.4%,,,,,,
COc1ccc(C(=O)Oc2c(OC)c(OC)c(Cl)c3c2-c2c(c(Cl)c(OC)c(OC)c2OC)CC(C)C(C)C3)cc1 (stereo not drawn),53.6%,,,,,,
COc1cc2c(c(OC)c1OC)-c1c(c([N+](=O)[O-])c(OC)c(OC)c1OC(=O)/C=C/c1ccccc1)CC(C)C(C)C2 (stereo not drawn),97.4%,Active,Active,Non-Toxic,Active,Active,
COc1c(Cl)c2c(c(OC)c1OC)-c1c(c(Cl)c(OC)c(OC)c1OC(=O)c1cccs1)CC(C)C(C)C2 (stereo not drawn),80.4%,,,,,,
COc1c(Cl)c2c(c(OC)c1OC)-c1c(c(Cl)c(OC)c(OC)c1OC(=O)c1ccc(Cl)cc1Cl)CC(C)C(C)C2 (stereo not drawn),68%,,,,,,
COc1cc2c(c(OC)c1OC)-c1c(O)c(OC)c(OC)c(Cl)c1CC(C)C(C)C2 (stereo not drawn),72.5%,,,,,,
